Results on one compound are retold here after US7622492B2, “Pyrazolones as inhibitors of 11β-hydroxysteroid dehydrogenase” (Hoffmann-La Roche Inc., priority 2005, dated 2009).

Molecules are shown by their SMILES.

For one assay, the target named is T1, human 11betaHSD1 (Homo sapiens, UniProt P28845).
T1 construct: HEK-293 cells stably transfected with full-length human 11betaHSD1 cDNA; expressed in transfected cells; host or cells: HEK-293
The experiment in a line: Cell-based assay: HEK-293 cells stably transfected with human 11betaHSD1, cortisol by competitive ELISA. Particulars: HEK-293 cells stably transfected with full-length human 11betaHSD1 cDNA, cortisone 100 nM, 1 hour. The protocol:
The following day, serially diluted 11bHSD1 inhibitor compounds dissolved in DMSO were added to plating media supplemented with BSA (2 mg/ml final). The final DMSO concentration was 1%. Media was aspirated from plates, and compounds in media were added to each well. The plates were incubated at 37° C. for 1 hour to allow for cellular uptake of compounds. 10 μL of substrate (cortisone) was then added to each well (100 nM final concentration) and incubated for 1 hour at 37° C. Plates were then transferred to ice and 80 μL of media transferred to a 96-well plate and stored at −30° C.
Plates were washed with PBS, 0.1% Tween-20, then washed with PBS alone. Plates were blocked with Blocking Buffer (Tropix Cat# AI075) for 2 hours at room temperature. The plates were then washed as previously described. Assay samples were thawed, diluted 1:4 in DMEM, 2 mg/mL BSA, 1% DMSO, and 24 μL was transferred to wells of a pre-coated 384-well plate, as well as varying amounts of cortisol standard. To each well, 12 μL of cortisol-conjugate and 12 μL of anti-cortisol EIA antibody were added and incubated 2 hrs at room temperature on a orbital plate shaker. The wells were then emptied by inversion, then washed three times with 100 μL of Wash Buffer (Tropix), and then 2 times with 100 μL of Assay Buffer (Tropix). 60 μL of CDP-STAR (Tropix) was added to each well and incubated 10 minutes at room temperature. Chemiluminescence was measured using a Victor V Reader (Perkin Elmer). Cortisol in each sample was interpolated from a standard curve generated with known amounts of cortisol. IC50 values were calculated using the curve fitting software XLFit3 (IDBS).

The target of a further assay is human HSD1 (Homo sapiens, UniProt P28845). The assay is described as follows: In vitro inhibition of purified human HSD1 (time-resolved fluorescence cortisol detection). Particulars: purified human HSD1, cortisone substrate, 30 min; read-out: hHSD1 IC50. The assay is classed as biochemical. The protocol: Purified human HSD1 was diluted in 50 mM Tris-HCl, 100 mM NaCl, 0.1 mg/ml BSA, 0.02% Lubrol, 20 mM MgCl2, 10 mM glucose 6-phosphate, 0.4 mM NADPH, 60 U/ml glucose 6-phosphate dehydrogenase to a concentration of 1.5 μg/ml (Enzyme Solution). […] Testing compounds (40 μM) in DMSO was diluted 3 fold in series in DMSO and further diluted 20 fold in Substrate Solution. Enzyme Solution (10 μl/well) was added into 384 well microtiter plates followed by diluted compound solutions (10 μl/well) and mixed well. Samples were then incubated at […] for 30 min. EDTA/biotin-cortisol solution (10 μl/well) in 28 mM EDTA, […], 50 mM Tris-HCl, 100 mM NaCl was then added followed by 5 ul/well of anti-cortisol antibody (3.2 μg/ml) in 50 mM Tris-HCl, 100 mM NaCl, 0.1 mg/ml BSA and the solution was incubated at 37 degrees for 30 min. […] Signals were quantitated by reading time-resolved fluorescence on a Victor 5 reader (Wallac).
Sequence of human HSD1 (P28845 whole entry): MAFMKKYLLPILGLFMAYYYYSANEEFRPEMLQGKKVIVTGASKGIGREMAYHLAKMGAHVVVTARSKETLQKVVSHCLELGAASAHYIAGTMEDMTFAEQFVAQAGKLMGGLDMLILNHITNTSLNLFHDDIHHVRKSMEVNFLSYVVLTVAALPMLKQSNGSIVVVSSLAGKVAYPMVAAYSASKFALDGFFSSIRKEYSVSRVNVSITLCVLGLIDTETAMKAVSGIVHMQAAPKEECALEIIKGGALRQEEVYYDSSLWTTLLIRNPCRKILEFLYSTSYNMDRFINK

T1 sequence (P28845 whole entry): as above

In general, IC50 refers to the concentration needed to halve the response being measured. For the compound `Cn1c2c(c(=O)n1-c1cccc(-c3ccccc3)c1)[C@H]1CC[C@]2(C)C1(C)C` [Example 43, (4S,7R)-2-Biphenyl-3-yl-1,7,8,8-tetramethyl-1,2,4,5,6,7-hexahydro-4,7-methano-indazol-3-one], the IC50 on human 11betaHSD1 is 25 nM; at human HSD1 it was 59 nM.
